Experimental data published in DBAASP.
≈ marks a conversion by molar mass, not a printed value.

Experiments:
Test in all cases: ≥ marks a high value that may be exact or a test limit, other limits are often not marked, values filed in µg/mL are converted to µM
[1] = tested on: Acinetobacter baumannii ATCC 19606
Acinetobacter baumannii = tested on: Acinetobacter baumannii
[2] = tested on: Bacillus subtilis DSM 4181
Burkholderia cepacia = tested on: Burkholderia cepacia
[3] = tested on: Enterococcus faecalis ATCC 29212
[4] = tested on: Escherichia coli ATCC 25922
Escherichia coli BW25113 = tested on: Escherichia coli BW25113
Escherichia coli HB101 = tested on: Escherichia coli HB101
Escherichia coli J2210 = tested on: Escherichia coli J2210
Escherichia coli JJ2489 = tested on: Escherichia coli JJ2489
Escherichia coli JW0013 = tested on: Escherichia coli JW0013
[5] = tested on: Escherichia coli JW0368 ΔsbmA
[6] = tested on: Escherichia coli JW2778 ΔygdD
Escherichia coli MC1041 = tested on: Escherichia coli MC1041
Escherichia coli ML-35 = tested on: Escherichia coli ML-35
Escherichia coli = tested on: Escherichia coli
[7] = tested on: Klebsiella pneumoniae ATCC 700603
Klebsiella pneumoniae = tested on: Klebsiella pneumoniae
[8] = tested on: Pseudomonas aeruginosa ATCC 27853
Pseudomonas aeruginosa = tested on: Pseudomonas aeruginosa
[9] = tested on: Salmonella enterica serovar Typhimurium
[10] = tested on: Salmonella enterica subsp. enterica serovar Enteritidis MH91989
[11] = tested on: Salmonella enterica subsp. enterica serovar Typhimurium ATCC 14028
[12] = tested on: Salmonella typhimurium SL1344
[13] = tested on: Serratia marcescens ATCC 8100
[14] = tested on: Staphylococcus aureus ATCC 25923
[15] = tested on: Staphylococcus epidermidis ATCC 12228
[16] = tested on: Stenotrophomonas maltophilia ATCC 13637
Candida albicans = tested on: Candida albicans
Escherichia coli DC2 = tested on: Escherichia coli DC2
Escherichia coli KF130 = tested on: Escherichia coli KF130
Escherichia coli UB1005 = tested on: Escherichia coli UB1005
[17] = tested on: Pseudomonas aeruginosa H374
[18] = tested on: Pseudomonas aeruginosa H744
[19] = tested on: Pseudomonas aeruginosa PAO1
[20] = tested on: Salmonella enterica subsp. enterica serovar Typhimurium ATCC 14028s
[21] = tested on: Staphylococcus aureus R147
[22] = tested on: Staphylococcus aureus SAP 0017
[23] = tested on: Staphylococcus epidermidis
[24] = tested on: Bacillus megaterium KCTC 1096
[25] = tested on: Bacillus subtilis KCTC 1918
[26] = tested on: Escherichia coli KCTC 1682
Proteus vulgaris = tested on: Proteus vulgaris
[27] = tested on: Pseudomonas aeruginosa KCTC 1637
[28] = tested on: Staphylococcus aureus KCTC 1621
Aspergillus niger = tested on: Aspergillus niger
[29] = tested on: Candida albicans IOC 4558
Candida albicans MDM8 = tested on: Candida albicans MDM8
[30] = tested on: Candida glabrata IOC 4565
Candida krusei IOC 4559 = tested on: Candida krusei IOC 4559
[31] = tested on: Candida parapsilosis IOC 456416
[32] = tested on: Candida tropicalis IOC 45608

Molecule `CC[C@H](C)[C@H](NC(=O)[C@H](CCCN=C(N)N)NC(=O)[C@@H](N)CCCN=C(N)N)C(=O)N[C@@H](CCCN=C(N)N)C(=O)N1CCC[C@H]1C(=O)N[C@@H](CCCN=C(N)N)C(=O)N1CCC[C@H]1C(=O)N1CCC[C@H]1C(=O)N[C@@H](CCCN=C(N)N)C(=O)N[C@@H](CC(C)C)C(=O)N1CCC[C@H]1C(=O)N[C@@H](CCCN=C(N)N)C(=O)N1CCC[C@H]1C(=O)N[C@@H](CCCN=C(N)N)C(=O)N1CCC[C@H]1C(=O)N[C@@H](CCCN=C(N)N)C(=O)O` [RRIRPRPPRLPRPRPR] has an MIC [1] of 32 µM (≈ 66.4 µg/mL), an MIC (Acinetobacter baumannii) of 5.66 µM (≈ 11.7 µg/mL) and an MIC [2] of 1 µM (≈ 2.08 µg/mL). For the same molecule, the MIC (Burkholderia cepacia) was no less than 128 µM, the MIC [3] was greater than 64 µM and the MIC [4] was 1 µM (≈ 2.08 µg/mL). For the same molecule, the MIC (Escherichia coli BW25113) was 0.06 µM (≈ 0.125 µg/mL), the MIC (Escherichia coli HB101) was 0.5 µM (≈ 1.04 µg/mL) and the MIC (Escherichia coli J2210) was 0.12 µM (≈ 0.249 µg/mL). The MIC (Escherichia coli JJ2489) was 0.12 µM (≈ 0.249 µg/mL), the MIC (Escherichia coli JW0013) was 0.06 µM (≈ 0.125 µg/mL) and the MIC [5] was 0.06 µM (≈ 0.125 µg/mL). It also gave an MIC [6] of 0.083 µM (≈ 0.172 µg/mL), an MIC (Escherichia coli MC1041) of 0.06 µM (≈ 0.125 µg/mL) and an MIC (Escherichia coli ML-35) of 2 µM (≈ 4.15 µg/mL). The MIC (Escherichia coli) was 8 µM (≈ 16.6 µg/mL), the MIC [7] was 4 µM (≈ 8.31 µg/mL) and the MIC (Klebsiella pneumoniae) was 4 µM (≈ 8.31 µg/mL). For the same molecule, the MIC [8] was greater than 64 µM, the MIC (Pseudomonas aeruginosa) was 90.5 µM (≈ 188 µg/mL) and the MIC [9] was 1 µM (≈ 2.08 µg/mL). For the same molecule, the MIC [10] was 0.12 µM (≈ 0.249 µg/mL), the MIC [11] was 1 µM (≈ 2.08 µg/mL) and the MIC [12] was 0.06 µM (≈ 0.125 µg/mL). For the same molecule, the MIC [13] was 8 µM (≈ 16.6 µg/mL), the MIC [14] was greater than 128 µM and the MIC [15] was greater than 64 µM. For the same molecule, the MIC [16] was no less than 64 µM.
Work on `CC(C)[C@@H]1NC(=O)[C@H](CCCN=C(N)N)NC(=O)[C@H](Cc2ccccc2)NC(=O)[C@@H](NC(=O)[C@H](Cc2c[nH]c3ccccc23)NC(=O)[C@H](CCCN=C(N)N)NC(=O)[C@@H](N)CCCN=C(N)N)CSSC[C@@H](C(=O)N[C@@H](CCCN=C(N)N)C(N)=O)NC(=O)[C@H](CCCCN)NC(=O)[C@H](CCCN=C(N)N)NC(=O)[C@H](Cc2ccc(O)cc2)NC(=O)[C@@H]2CSSC[C@H](NC1=O)C(=O)N[C@@H](Cc1ccc(O)cc1)C(=O)N[C@@H](CCCN=C(N)N)C(=O)NCC(=O)N[C@@H](CCCN=C(N)N)C(=O)N[C@@H](Cc1ccccc1)C(=O)N2` [RRWCFRVCYRGRFCYRKCR] yielded an MIC (Candida albicans) of 0.765 µM (≈ 2 µg/mL), an MIC [3] of 0.191 µM (≈ 0.499 µg/mL) and an MIC (Escherichia coli DC2) of 0.0956 µM (≈ 0.25 µg/mL). For the same molecule, the MIC (Escherichia coli KF130) was 0.0956 µM (≈ 0.25 µg/mL), the MIC (Escherichia coli UB1005) was 0.0956 µM (≈ 0.25 µg/mL) and the MIC [17] was 0.191 µM (≈ 0.499 µg/mL). For the same molecule, the MIC [18] was 0.382 µM (≈ 0.998 µg/mL), the MIC [19] was 0.382 µM (≈ 0.998 µg/mL) and the MIC [20] was 0.191 µM (≈ 0.499 µg/mL). The MIC [14] was 0.382 µM (≈ 0.998 µg/mL), the MIC [21] was 0.382 µM (≈ 0.998 µg/mL) and the MIC [22] was 0.382 µM (≈ 0.998 µg/mL). It also gave an MIC [23] of 0.0956 µM (≈ 0.25 µg/mL).
`CC[C@H](C)[C@H](NC(=O)[C@H](CCCCN)NC(=O)[C@H](CCCCN)NC(=O)[C@H](Cc1ccccc1)NC(=O)[C@H](CC(C)C)NC(=O)[C@H](CCCCN)NC(=O)[C@H](Cc1c[nH]c2ccccc12)NC(=O)[C@@H](N)CCCCN)C(=O)N1CCC[C@H]1C(=O)N[C@@H](Cc1cnc[nH]1)C(=O)N[C@@H](CC(C)C)C(=O)N[C@@H](C)C(=O)N[C@@H](CCCCN)C(=O)N[C@@H](CCCCN)C(=O)N[C@@H](Cc1ccccc1)C(N)=O` [KWKLFKKIPHLAKKF] was tested, and the MIC [24] was 3.12 µM (≈ 5.97 µg/mL), the MIC [25] was 0.78 µM (≈ 1.49 µg/mL) and the MIC [26] was 12.5 µM (≈ 23.9 µg/mL). The MIC (Proteus vulgaris) was 1.56 µM (≈ 2.98 µg/mL), the MIC [27] was 12.5 µM (≈ 23.9 µg/mL) and the MIC [28] was 6.25 µM (≈ 11.9 µg/mL).
With `CC[C@H](C)[C@@H]1NC(=O)[C@H](C)NC(=O)[C@@H](NC(=O)[C@@H](NC(=O)[C@@H](N)Cc2ccccc2)[C@@H](C)O)CSSC[C@@H]2NC(=O)[C@H](CCCCN)NC(=O)[C@H](CCCCN)NC(=O)[C@H](CCC(=O)O)NC(=O)CNC(=O)[C@H](CO)NC(=O)CNC(=O)[C@H](CCCCN)NC(=O)[C@@H]3CSSC[C@@H](C(=O)N[C@H](C(=O)N[C@@H](CCCCN)C(=O)N[C@H](C(=O)O)C(C)C)C(C)C)NC(=O)[C@H](C(C)C)NC(=O)[C@H](CC(N)=O)NC(=O)[C@H](Cc4ccccc4)NC(=O)[C@H](CCCCN)NC(=O)[C@H](CSSC[C@H](NC(=O)[C@H](CO)NC1=O)C(=O)N[C@@H](CC(=O)O)C(=O)N[C@@H]([C@@H](C)CC)C(=O)N[C@@H](CCCCN)C(=O)N[C@@H](C(C)C)C(=O)N[C@@H](CC(N)=O)C(=O)NCC(=O)N[C@@H](CCCCN)C(=O)N1CCC[C@H]1C(=O)N3)NC(=O)[C@H](CO)NC(=O)[C@H](Cc1c[nH]c3ccccc13)NC(=O)CNC(=O)CNC(=O)[C@H](CO)NC2=O` [FTCAISCDIKVNGKPCKGSGEKKCSGGWSCKFNVCVKV] the MIC (Aspergillus niger) was 7.07 µM (≈ 28.3 µg/mL), the MIC [29] was 3.54 µM (≈ 14.2 µg/mL) and the MIC (Candida albicans MDM8) was 3.54 µM (≈ 14.2 µg/mL). It also gave an MIC [30] of 3.54 µM (≈ 14.2 µg/mL), an MIC (Candida krusei IOC 4559) of 3.54 µM (≈ 14.2 µg/mL) and an MIC [31] of 3.54 µM (≈ 14.2 µg/mL). It also gave an MIC [32] of 3.54 µM (≈ 14.2 µg/mL).
